Assay results published in patent publication US9944607B2, “Thiohydantoin derivatives and uses thereof” (Whitehead Institute for Biomedical Research, priority 2012, dated 2018).
In brackets after ≈: the same amount, converted by molar mass. Read-outs that look alike come from different tables or passages of the source.

Assays:
[1] = tested on: NIH-3T3 mammalian fibroblasts; assay: Counterscreen mammalian cell toxicity assay (Alamar Blue); format: cell-based, murine; settings: n = 1, 48 hours, tested up to 26 μM
Method: Quiescent murine fibroblasts were subjected to incubation with compounds of interest for 48 hours. Subsequent cell viability was determined via measuring Alamar Blue fluorescence.
Procedures • After overnight culture, pin compounds into wells at 100 nL/well using the CyBio CyBi-Well pinning instrument. • Return the plates to the tissue culture incubator and incubate the culture for an additional 48 hours at 37° C. under 5% CO2. • At the completion of this incubation, add Alamar Blue solution diluted 1:40 in PBS to each well (10 μL/well) to achieve a final dilution of 1:200. • Incubate the plates for an additional 2-3 hours at 37° C. under 5% CO2. • Read the Relative Fluorescence Intensity (RFU) of wells on a standard plate reader as a measure of relative cell growth. […] 4.4.

[2] = Solubility in PBS pH 7.4 with 1% DMSO; settings: for solubility at 24 h: phosphate buffered saline with 1% DMSO, pH 7.4, aqueous buffer, kinetic from dmso stock
Method: Solubility was determined in phosphate buffered saline (PBS) pH 7.4 with 1% DMSO. Each compound was prepared in duplicate at 100 μM in both 100% DMSO and PBS with 1% DMSO. Compounds were allowed to equilibrate at room temperature with a 250 rpm orbital shake for 24 hours. After equilibration, samples were analyzed by UPLC-MS (Waters, Milford, Mass.) with compounds detected by SIR detection on a single quadrupole mass spectrometer. The DMSO samples were used to create a two-point calibration curve to which the response in PBS was fit.

Candida albicans CaCi-2 = assay: Primary assay: C. albicans CaCi-2 growth inhibition (Alamar Blue); format: cell-based; settings: n = 3, 48 hours, tested up to 26 μM; for IC50: read-out: Growth Inhibition Activity, IC50 (μM), C. albicans (n = 3) CaCi-2
Candida albicans CaCi-17 = assay: Primary assay: C. albicans CaCi-17 growth inhibition (Alamar Blue); format: cell-based; settings: n = 3, 48 hours, tested up to 26 μM
[3] = Table 4, PBS pH 7.4 with 1% DMSO, 24 hours, room temperature

CCCCN1C(=O)N(c2ccc(C)cc2)C2(CCCCC2)C1=S [compound 56604857]
IC50 ([1]; Mus musculus, NIH3T3, read-out: Growth Inhibition Activity, IC50 (μM), 3T3 Fibroblasts (n = 1), Table 6): 20.9 µM | solubility at 24 h [2]: < 1 µM | Growth Inhibition Activity, IC50 (μM), C. albicans (n = 3) CaCi-2 (Candida albicans CaCi-2; Table 6): inactive | Growth Inhibition Activity, IC50 (μM), C. albicans (n = 3) CaCi-17 (Candida albicans CaCi-17; Table 6): inactive

CCCc1ccc(N2C(=S)N(C(=O)OCC)C(=O)C23CCCCC3)cc1 [compound 56604858]
Growth Inhibition Activity, IC50 (μM), 3T3 Fibroblasts (n = 1) ([1]; Table 4): Inactive | PBS Solubility ([2]; pH 7.4): <1.0 µM | IC50 (Candida albicans CaCi-2; Table 4): 6.9 µM | Growth Inhibition Activity, IC50 (μM), C. albicans (n = 3) CaCi-17 (Candida albicans CaCi-17; Table 4): inactive

Cc1ccc(N2C(=S)N(C(=O)OC(C)C)C(=O)C23CCCCC3)cc1 [compound 56604859]
Growth Inhibition Activity, IC50 (μM), 3T3 Fibroblasts (n = 1) ([1]; Table 3): Inactive | PBS Solubility ([2]; pH 7.4): <1.0 µM | IC50 (Candida albicans CaCi-2; Table 3): 5.9 µM | Growth Inhibition Activity, IC50 (μM), C. albicans (n = 3) CaCi-17 (Candida albicans CaCi-17; Table 3): inactive

O=C1NC(=S)N(c2ccc(F)cc2)C12CCCCC2 [compound 56604862]
Growth Inhibition Activity, IC50 (μM), 3T3 Fibroblasts (n = 1) ([1]; Table 7): Inactive | solubility at 24 h [2]: 43 µM (≈ 12 µg/mL) | Growth Inhibition Activity, IC50 (μM), C. albicans (n = 3) CaCi-2 (Candida albicans CaCi-2; Table 7): inactive | Growth Inhibition Activity, IC50 (μM), C. albicans (n = 3) CaCi-17 (Candida albicans CaCi-17; Table 7): inactive

CCOC(=O)N1C(=S)N(c2ccc(C)cc2)C2(CCCCC2)/C1=N/Cc1ccccc1 [compound 56604867]
Growth Inhibition Activity, IC50 (μM), 3T3 Fibroblasts (n = 1) ([1]; Table 6): Inactive | solubility at 24 h [2]: 26 µM (≈ 11.3 µg/mL) | Growth Inhibition Activity, IC50 (μM), C. albicans (n = 3) CaCi-2 (Candida albicans CaCi-2; Table 6): inactive | Growth Inhibition Activity, IC50 (μM), C. albicans (n = 3) CaCi-17 (Candida albicans CaCi-17; Table 6): inactive

CCCC(=O)N1C(=O)C2(CCCCC2)N(c2ccc(C)cc2)C1=S [compound 56604869]
IC50 ([1]; read-out: Growth Inhibition Activity, IC50 (μM), 3T3 Fibroblasts (n = 1), Table 3): 18.8 µM | PBS Solubility ([2]; pH 7.4): 2.2 µM | Growth Inhibition Activity, IC50 (μM), C. albicans (n = 3) CaCi-2 (Candida albicans CaCi-2; Table 3): inactive | Growth Inhibition Activity, IC50 (μM), C. albicans (n = 3) CaCi-17 (Candida albicans CaCi-17; Table 3): inactive

Cc1ccc(N2C(=S)N(C(=O)Oc3ccccc3)C(=O)C23CCCCC3)cc1 [compound 56604875]
Growth Inhibition Activity, IC50 (μM), 3T3 Fibroblasts (n = 1) ([1]; Table 3): Inactive | PBS Solubility ([2]; Table 3, PBS pH 7.4 with 1% DMSO, 24 hours, room temperature): <1.0 µM | Growth Inhibition Activity, IC50 (μM), C. albicans (n = 3) CaCi-2 (Candida albicans CaCi-2; Table 3): inactive | Growth Inhibition Activity, IC50 (μM), C. albicans (n = 3) CaCi-17 (Candida albicans CaCi-17; Table 3): inactive

Cc1ccc(N2C(=S)NC(=O)C23CCCC3)cc1 [compound 56604876]
IC50 ([1]; Mus musculus, NIH3T3, read-out: Growth Inhibition Activity, IC50 (μM), 3T3 Fibroblasts (n = 1), Table 7): 32.6 µM | solubility at 24 h [2]: 72 µM (≈ 18.7 µg/mL) | Growth Inhibition Activity, IC50 (μM), C. albicans (n = 3) CaCi-2 (Candida albicans CaCi-2; Table 7): inactive | Growth Inhibition Activity, IC50 (μM), C. albicans (n = 3) CaCi-17 (Candida albicans CaCi-17; Table 7): inactive

CCCCN1C(=O)N(c2ccc(C)cc2)C2(CCCCC2)C1=O [compound 56604877]
Growth Inhibition Activity, IC50 (μM), 3T3 Fibroblasts (n = 1) ([1]; Table 6): Inactive | solubility at 24 h [2]: 64 µM (≈ 20.1 µg/mL) | Growth Inhibition Activity, IC50 (μM), C. albicans (n = 3) CaCi-2 (Candida albicans CaCi-2; Table 6): inactive | Growth Inhibition Activity, IC50 (μM), C. albicans (n = 3) CaCi-17 (Candida albicans CaCi-17; Table 6): inactive

CCOC(=O)N1C(=O)C2(CCCCC2)N(Cc2ccccc2)C1=S [compound 56604878]
Growth Inhibition Activity, IC50 (μM), 3T3 Fibroblasts (n = 1) ([1]; Table 4): Inactive | PBS Solubility [2, 3]: 7.2 µM | IC50 (Candida albicans CaCi-2; Table 4): 3.8 µM | IC50 (Candida albicans CaCi-17; Table 4, read-out: Growth Inhibition Activity, IC50 (μM), C. albicans (n = 3) CaCi-17): 22.8 µM

Cc1ccc(N2C(=S)NC(=O)C2(C)C)cc1 [compound 56604879]
Growth Inhibition Activity, IC50 (μM), 3T3 Fibroblasts (n = 1) ([1]; Table 7): Inactive | solubility at 24 h [2]: 55 µM (≈ 12.9 µg/mL) | Growth Inhibition Activity, IC50 (μM), C. albicans (n = 3) CaCi-2 (Candida albicans CaCi-2; Table 7): inactive | Growth Inhibition Activity, IC50 (μM), C. albicans (n = 3) CaCi-17 (Candida albicans CaCi-17; Table 7): inactive

CCOC(=O)N1C(=O)C2(CCCCC2)N(c2ccc(-c3ccccc3)cc2)C1=S [compound 56604882]
IC50 ([1]; read-out: Growth Inhibition Activity, IC50 (μM), 3T3 Fibroblasts (n = 1), Table 4): 9.8 µM | PBS Solubility [2, 3]: <1.0 µM | Growth Inhibition Activity, IC50 (μM), C. albicans (n = 3) CaCi-2 (Candida albicans CaCi-2; Table 4): inactive | Growth Inhibition Activity, IC50 (μM), C. albicans (n = 3) CaCi-17 (Candida albicans CaCi-17; Table 4): inactive

Cc1ccc(N2C(=O)NC(=O)C23CCCCC3)cc1 [compound 56604883]
Growth Inhibition Activity, IC50 (μM), 3T3 Fibroblasts (n = 1) ([1]; Table 7): Inactive | solubility at 24 h [2]: 14 µM (≈ 3.62 µg/mL) | Growth Inhibition Activity, IC50 (μM), C. albicans (n = 3) CaCi-2 (Candida albicans CaCi-2; Table 7): inactive | Growth Inhibition Activity, IC50 (μM), C. albicans (n = 3) CaCi-17 (Candida albicans CaCi-17; Table 7): inactive

Cc1ccc(N2C(=O)C(=O)NC2=S)cc1 [compound 56604884]
Growth Inhibition Activity, IC50 (μM), 3T3 Fibroblasts (n = 1) ([1]; Table 7): Inactive | solubility at 24 h [2]: 21 µM (≈ 4.63 µg/mL) | Growth Inhibition Activity, IC50 (μM), C. albicans (n = 3) CaCi-2 (Candida albicans CaCi-2; Table 7): inactive | Growth Inhibition Activity, IC50 (μM), C. albicans (n = 3) CaCi-17 (Candida albicans CaCi-17; Table 7): inactive

Cc1ccc(N2C(=S)NC(=O)C23CCOCC3)cc1 [compound 56604885]
Growth Inhibition Activity, IC50 (μM), 3T3 Fibroblasts (n = 1) ([1]; Table 7): Inactive | solubility at 24 h [2]: > 100 µM | Growth Inhibition Activity, IC50 (μM), C. albicans (n = 3) CaCi-2 (Candida albicans CaCi-2; Table 7): inactive | Growth Inhibition Activity, IC50 (μM), C. albicans (n = 3) CaCi-17 (Candida albicans CaCi-17; Table 7): inactive

Cc1ccc(N2C(=S)N(S(C)(=O)=O)C(=O)C23CCCCC3)cc1 [compound 56604886]
Growth Inhibition Activity, IC50 (μM), 3T3 Fibroblasts (n = 1) ([1]; Table 3): Inactive | PBS Solubility ([2]; pH 7.4): 29 µM | Growth Inhibition Activity, IC50 (μM), C. albicans (n = 3) CaCi-2 (Candida albicans CaCi-2; Table 3): inactive | Growth Inhibition Activity, IC50 (μM), C. albicans (n = 3) CaCi-17 (Candida albicans CaCi-17; Table 3): inactive

Cc1ccc(N2C(=S)NC(=O)C23CCCCC3)cc1 [compound 56604892]
Growth Inhibition Activity, IC50 (μM), 3T3 Fibroblasts (n = 1) ([1]; Table 3): Inactive | PBS Solubility ([2]; pH 7.4): 7.8 µM | Growth Inhibition Activity, IC50 (μM), C. albicans (n = 3) CaCi-2 (Candida albicans CaCi-2; Table 3): inactive | Growth Inhibition Activity, IC50 (μM), C. albicans (n = 3) CaCi-17 (Candida albicans CaCi-17; Table 3): inactive

CCOC(=O)N1C(=O)C2(CCC2)N(c2ccc(C)cc2)C1=S [compound 56604894]
Growth Inhibition Activity, IC50 (μM), 3T3 Fibroblasts (n = 1) ([1]; Table 5): Inactive | PBS Solubility ([2]; pH 7.4): 9.9 µM | Growth Inhibition Activity, IC50 (μM), C. albicans (n = 3) CaCi-2 (Candida albicans CaCi-2; Table 5): Inactive | Growth Inhibition Activity, IC50 (μM), C. albicans (n = 3) CaCi-17 (Candida albicans CaCi-17; Table 5): inactive

CCOC(=O)N1C(=O)C2(CCCCC2)N(C(C)C)C1=S [compound 56604896]
Growth Inhibition Activity, IC50 (μM), 3T3 Fibroblasts (n = 1) ([1]; Table 4): Inactive | PBS Solubility [2, 3]: 12 µM | Growth Inhibition Activity, IC50 (μM), C. albicans (n = 3) CaCi-2 (Candida albicans CaCi-2; Table 4): inactive | Growth Inhibition Activity, IC50 (μM), C. albicans (n = 3) CaCi-17 (Candida albicans CaCi-17; Table 4): inactive
